Laboratory results as given in ChEMBL document CHEMBL4219066, “Identification and Mitigation of Reactive Metabolites of 2-Aminoimidazole-Containing Microsomal Prostaglandin E Synthase-1 Inhibitors Terminated Due to Clinical Drug-Induced Liver Injury” (J Med Chem, 2018).

What was measured:
[1] = Drug metabolism in rat hepatocytes assessed as 2-amino-5-((R)-1-(carboxymethylamino)-3-((2-(2-chloro-5-(pivalamidomethyl)benzamido)-1H-imidazol-5-yl)disulfanyl)-1-oxopropan-2-ylamino)-5-oxopentanoic acid formation at 2 uM after 4 hrs by LC-MS/MS analysis; format: ADME, cell-based, Hepatocyte
[2] = Drug metabolism in rat hepatocytes assessed as 2-chloro-5-((3-hydroxy-2,2-dimethylpropanamido)methyl)-N-(1H-imidazol-2-yl)benzamide formation at 2 uM after 4 hrs by LC-MS/MS analysis; format: ADME, cell-based, Hepatocyte
[3] = Drug metabolism in dog hepatocytes assessed as 2-chloro-5-((3-hydroxy-2,2-dimethylpropanamido)methyl)-N-(1H-imidazol-2-yl)benzamide formation at 2 uM after 4 hrs by LC-MS/MS analysis; format: ADME, cell-based, Canis lupus familiaris, Hepatocyte
[4] = Drug metabolism in human hepatocytes assessed as 2-chloro-5-((3-hydroxy-2,2-dimethylpropanamido)methyl)-N-(1H-imidazol-2-yl)benzamide formation at 2 uM after 4 hrs by LC-MS/MS analysis; format: ADME, cell-based, Hepatocyte
[5] = Drug metabolism in rat hepatocytes assessed as 2-chloro-N-(4,5-dihydroxy-4,5-dihydro-1H-imidazol-2-yl)-5-(pivalamidomethyl)benzamide formation at 2 uM after 4 hrs by LC-MS/MS analysis; format: ADME, cell-based, Hepatocyte
[6] = Drug metabolism in dog hepatocytes assessed as 2-chloro-N-(4,5-dihydroxy-4,5-dihydro-1H-imidazol-2-yl)-5-(pivalamidomethyl)benzamide formation at 2 uM after 4 hrs by LC-MS/MS analysis; format: ADME, cell-based, Canis lupus familiaris, Hepatocyte
[7] = Drug metabolism in human hepatocytes assessed as 2-chloro-N-(4,5-dihydroxy-4,5-dihydro-1H-imidazol-2-yl)-5-(pivalamidomethyl)benzamide formation at 2 uM after 4 hrs by LC-MS/MS analysis; format: ADME, cell-based, Hepatocyte
[8] = Drug metabolism in rat hepatocytes assessed as 2-chloro-N-(4-hydroxy-1H-imidazol-2-yl)-5-(pivalamidomethyl)benzamide formation at 2 uM after 4 hrs by LC-MS/MS analysis; format: ADME, cell-based, Hepatocyte
[9] = Drug metabolism in dog hepatocytes assessed as 2-chloro-N-(4-hydroxy-1H-imidazol-2-yl)-5-(pivalamidomethyl)benzamide formation at 2 uM after 4 hrs by LC-MS/MS analysis; format: ADME, cell-based, Canis lupus familiaris, Hepatocyte
[10] = Drug metabolism in human hepatocytes assessed as 2-chloro-N-(4-hydroxy-1H-imidazol-2-yl)-5-(pivalamidomethyl)benzamide formation at 2 uM after 4 hrs by LC-MS/MS analysis; format: ADME, cell-based, Hepatocyte
[11] = Drug metabolism in dog hepatocytes assessed as N-carbamimidoyl-2-chloro-5-(pivalamidomethyl)benzamide formation at 2 uM after 4 hrs by LC-MS/MS analysis; format: ADME, cell-based, Canis lupus familiaris, Hepatocyte
[12] = Drug metabolism in Sprague-Dawley rat plasma assessed as 2-chloro-5-((3-hydroxy-2,2-dimethylpropanamido)methyl)-N-(1H-imidazol-2-yl)benzamide formation at 1000 mg/kg, po measured after 2 hrs post dose by LC/MS analysis; format: ADME, organism-based; conditions: in vivo
[13] = Drug metabolism in Beagle dog plasma assessed as 2-chloro-5-((3-hydroxy-2,2-dimethylpropanamido)methyl)-N-(1H-imidazol-2-yl)benzamide formation at 300 to 600 mg/kg, po measured after 2 hrs post dose by LC/MS analysis; format: ADME, organism-based, Canis lupus familiaris; conditions: in vivo
[14] = In vivo drug metabolism in human plasma assessed as 2-chloro-5-((3-hydroxy-2,2-dimethylpropanamido)methyl)-N-(1H-imidazol-2-yl)benzamide formation HPLC-MS analysis; format: ADME, organism-based
[15] = Drug metabolism in Sprague-Dawley rat plasma assessed as 2-chloro-N-(4,5-dihydroxy-4,5-dihydro-1H-imidazol-2-yl)-5-(pivalamidomethyl)benzamide formation at 1000 mg/kg, po measured after 2 hrs post dose by LC/MS analysis; format: ADME, organism-based; conditions: in vivo
[16] = Drug metabolism in Beagle dog plasma assessed as 2-chloro-N-(4,5-dihydroxy-4,5-dihydro-1H-imidazol-2-yl)-5-(pivalamidomethyl)benzamide formation at 300 to 600 mg/kg, po measured after 2 hrs post dose by LC/MS analysis; format: ADME, organism-based, Canis lupus familiaris; conditions: in vivo
[17] = Drug metabolism in Sprague-Dawley rat plasma assessed as 2-chloro-N-(4-hydroxy-1H-imidazol-2-yl)-5-(pivalamidomethyl)benzamide formation at 1000 mg/kg, po measured after 2 hrs post dose by LC/MS analysis; format: ADME, organism-based; conditions: in vivo
[18] = Drug metabolism in Beagle dog plasma assessed as 2-chloro-N-(4-hydroxy-1H-imidazol-2-yl)-5-(pivalamidomethyl)benzamide formation at 300 to 600 mg/kg, po measured after 2 hrs post dose by LC/MS analysis; format: ADME, organism-based, Canis lupus familiaris; conditions: in vivo
[19] = In vivo drug metabolism in human plasma assessed as 2-chloro-N-(4-hydroxy-1H-imidazol-2-yl)-5-(pivalamidomethyl)benzamide formation HPLC-MS analysis; format: ADME, organism-based
[20] = Drug metabolism in Sprague-Dawley rat plasma assessed as N-carbamimidoyl-2-chloro-5-(pivalamidomethyl)benzamide formation at 1000 mg/kg, po measured after 2 hrs post dose by LC/MS analysis; format: ADME, organism-based; conditions: in vivo
[21] = Drug metabolism in Beagle dog plasma assessed as N-carbamimidoyl-2-chloro-5-(pivalamidomethyl)benzamide formation at 300 to 600 mg/kg, po measured after 2 hrs post dose by LC/MS analysis; format: ADME, organism-based, Canis lupus familiaris; conditions: in vivo
[22] = In vivo drug metabolism in human plasma assessed as N-carbamimidoyl-2-chloro-5-(pivalamidomethyl)benzamide formation by HPLC-MS analysis; format: ADME, organism-based
[23] = Drug metabolism in Sprague-Dawley rat plasma assessed as 2-chloro-5-(pivalamidomethyl)benzoic acid formation at 1000 mg/kg, po measured after 2 hrs post dose by LC/MS analysis; format: ADME, organism-based; conditions: in vivo
[24] = Drug metabolism in Beagle dog plasma assessed as 2-chloro-5-(pivalamidomethyl)benzoic acid formation at 300 to 600 mg/kg, po measured after 2 hrs post dose by LC/MS analysis; format: ADME, organism-based, Canis lupus familiaris; conditions: in vivo
[25] = Drug metabolism in Sprague-Dawley rat plasma assessed as 5-(aminomethyl)-2-chloro-N-(1H-imidazol-2-yl)benzamide formation at 1000 mg/kg, po measured after 2 hrs post dose by LC/MS analysis; format: ADME, organism-based; conditions: in vivo
[26] = Drug metabolism in Beagle dog plasma assessed as 5-(aminomethyl)-2-chloro-N-(1H-imidazol-2-yl)benzamide formation at 300 to 600 mg/kg, po measured after 2 hrs post dose by LC/MS analysis; format: ADME, organism-based, Canis lupus familiaris; conditions: in vivo
[27] = In vivo drug metabolism in human urine assessed as 2-chloro-5-((3-hydroxy-2,2-dimethylpropanamido)methyl)-N-(1H-imidazol-2-yl)benzamide formation by HPLC-MS analysis; format: ADME, organism-based
[28] = In vivo drug metabolism in human urine assessed as 2-chloro-N-(4,5-dihydroxy-4,5-dihydro-1H-imidazol-2-yl)-5-(pivalamidomethyl)benzamide formation by HPLC-MS analysis; format: ADME, organism-based
[29] = In vivo drug metabolism in human urine assessed as 2-chloro-N-(4-hydroxy-1H-imidazol-2-yl)-5-(pivalamidomethyl)benzamide formation by HPLC-MS analysis; format: ADME, organism-based
[30] = In vivo drug metabolism in human urine assessed as N-carbamimidoyl-2-chloro-5-(pivalamidomethyl)benzamide formation by HPLC-MS analysis; format: ADME, organism-based
[31] = In vivo drug metabolism in human urine assessed as N-carbamimidoyl-2-chloro-5-((3-hydroxy-2,2-dimethylpropanamido)methyl)benzamide formation by HPLC-MS analysis; format: ADME, organism-based
[32] = In vivo drug metabolism in human urine assessed as (R)-2-amino-3-((2-(2-chloro-5-(pivalamidomethyl)benzamido)-1H-imidazol-5-yl)disulfanyl)propanoic acid formation by HPLC-MS analysis; format: ADME, organism-based
[33] = Drug metabolism in rat hepatocytes assessed as N-(6-oxa-2,4-diazabicyclo[3.1.0]hex-3-en-3-yl)-2-chloro-5-(pivalamidomethyl)benzamide formation at 2 uM after 4 hrs by LC-MS/MS analysis; format: ADME, cell-based, Hepatocyte
[34] = Drug metabolism in dog hepatocytes assessed as N-(6-oxa-2,4-diazabicyclo[3.1.0]hex-3-en-3-yl)-2-chloro-5-(pivalamidomethyl)benzamide formation at 2 uM after 4 hrs by LC-MS/MS analysis; format: ADME, cell-based, Canis lupus familiaris, Hepatocyte
[35] = Drug metabolism in human hepatocytes assessed as N-(6-oxa-2,4-diazabicyclo[3.1.0]hex-3-en-3-yl)-2-chloro-5-(pivalamidomethyl)benzamide formation at 2 uM after 4 hrs by LC-MS/MS analysis; format: ADME, cell-based, Hepatocyte
[36] = Drug metabolism in human liver microsomes assessed as N-(6-oxa-2,4-diazabicyclo[3.1.0]hex-3-en-3-yl)-2-chloro-5-(pivalamidomethyl)benzamide formation at 2 uM in presence of 1:1 ratio of unlabeled GSH and [glycine 13C2,15N]-labelled GSH after 0.5 hrs by HPLC-MS analysis; format: ADME, microsome
[37] = Drug metabolism in Sprague-Dawley rat plasma assessed as N-(6-oxa-2,4-diazabicyclo[3.1.0]hex-3-en-3-yl)-2-chloro-5-(pivalamidomethyl)benzamide formation at 1000 mg/kg, po measured after 2 hrs post dose by LC/MS analysis; format: ADME, organism-based; conditions: in vivo
[38] = Drug metabolism in Beagle dog plasma assessed as N-(6-oxa-2,4-diazabicyclo[3.1.0]hex-3-en-3-yl)-2-chloro-5-(pivalamidomethyl)benzamide formation at 300 to 600 mg/kg, po measured after 2 hrs post dose by LC/MS analysis; format: ADME, organism-based, Canis lupus familiaris; conditions: in vivo
[39] = In vivo drug metabolism in human plasma assessed as N-(6-oxa-2,4-diazabicyclo[3.1.0]hex-3-en-3-yl)-2-chloro-5-(pivalamidomethyl)benzamide formation HPLC-MS analysis; format: ADME, organism-based
[40] = In vivo drug metabolism in human urine assessed as N-(6-oxa-2,4-diazabicyclo[3.1.0]hex-3-en-3-yl)-2-chloro-5-(pivalamidomethyl)benzamide formation by HPLC-MS analysis; format: ADME, organism-based

In the case of CC(C)(C)C(=O)NCc1ccc(Cl)c(C(=O)Nc2ncc[nH]2)c1 [LY-3031207], the Drug metabolism [1] is reported as “Metabolite_Detected”, the Drug metabolism [2] is reported as “Metabolite_Detected” and the Drug metabolism [3] is reported as “Metabolite_Detected”. The Drug metabolism [4] was “Metabolite_Detected”, the Drug metabolism [5] was “Metabolite_Detected” and the Drug metabolism [6] was “Metabolite_Detected”. For the same compound, the Drug metabolism [7] was “Metabolite_Detected”, the Drug metabolism [8] was “Metabolite_Detected” and the Drug metabolism [9] was “Metabolite_Detected”. The Drug metabolism [10] was “Metabolite_Detected”, the Drug metabolism [11] was “Metabolite_Detected” and the Drug metabolism [12] was “Metabolite_Detected”. For the same compound, the Drug metabolism [13] was “Metabolite_Detected”, the Drug metabolism [14] was “Metabolite_Detected” and the Drug metabolism [15] was “Metabolite_Detected”. The Drug metabolism [16] was “Metabolite_Detected”, the Drug metabolism [17] was “Metabolite_Detected” and the Drug metabolism [18] was “Metabolite_Detected”. For the same compound, the Drug metabolism [19] was “Metabolite_Detected”, the Drug metabolism [20] was “Metabolite_Detected” and the Drug metabolism [21] was “Metabolite_Detected”. For the same compound, the Drug metabolism [22] was “Metabolite_Detected”, the Drug metabolism [23] was “Metabolite_Detected” and the Drug metabolism [24] was “Metabolite_Detected”. For the same compound, the Drug metabolism [25] was “Metabolite_Detected”, the Drug metabolism [26] was “Metabolite_Detected” and the Drug metabolism [27] was “Metabolite_Detected”. For the same compound, the Drug metabolism [28] was “Metabolite_Detected”, the Drug metabolism [29] was “Metabolite_Detected” and the Drug metabolism [30] was “Metabolite_Detected”. For the same compound, the Drug metabolism [31] was “Metabolite_Detected”, the Drug metabolism [32] was “Metabolite_Detected” and the Drug metabolism [33] was “Metabolite_Notdetected”. The Drug metabolism [34] was “Metabolite_Notdetected”, the Drug metabolism [35] was “Metabolite_Notdetected” and the Drug metabolism [36] was “Metabolite_Notdetected”. For the same compound, the Drug metabolism [37] was “Metabolite_Notdetected”, the Drug metabolism [38] was “Metabolite_Notdetected” and the Drug metabolism [39] was “Metabolite_Notdetected”. For the same compound, the Drug metabolism [40] was “Metabolite_Notdetected”.
